Experimental data as given in PubChem BioAssay (NCI).
Several values for one entry are separate records, joined by “and”; a condition that tells them apart may be missing. Equal entries are not always repeated.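 Five concentrations, 48 hours, 96-well plates. GI50 is the concentration that inhibits growth by half. TGI: concentration producing complete growth inhibition.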

How the values were obtained:
Assay in all cases: NCI-60 cell line screen, 48 h
UO-31 renal = tested on: UO-31 renal
786-0 renal = tested on: 786-0 renal
NCI-H226 lung = tested on: NCI-H226 lung
SF-295 CNS = tested on: SF-295 CNS
UACC-257 melanoma = tested on: UACC-257 melanoma
HT29 colon = tested on: HT29 colon
A498 renal = tested on: A498 renal
SNB-75 CNS = tested on: SNB-75 CNS
M14 melanoma = tested on: M14 melanoma
HOP-62 NSCLC = tested on: HOP-62 NSCLC

Row | Compound | GI50 (UO-31 renal) | TGI (UO-31 renal) | GI50 (786-0 renal) | TGI (786-0 renal) | GI50 (NCI-H226 lung) | TGI (NCI-H226 lung) | GI50 (SF-295 CNS) [µM] | TGI (SF-295 CNS) [µM] | GI50 (UACC-257 melanoma) [µM] | TGI (UACC-257 melanoma) | GI50 (HT29 colon) [µM] | TGI (HT29 colon) | GI50 (A498 renal) | TGI (A498 renal) | GI50 (SNB-75 CNS) | TGI (SNB-75 CNS) | GI50 (M14 melanoma) | TGI (M14 melanoma) | GI50 (HOP-62 NSCLC) | TGI (HOP-62 NSCLC)
1 | Oc1c(Br)cc(Cl)cc1C(c1cc(Cl)cc(Br)c1O)C(Cl)(Cl)Cl | 2.81 µM | 9.61 µM | 2.96 µM | 10.3 µM | 2.72 µM | 8.61 µM | 1.59 | 5.29 | 2.33 | 6.57 µM | 3.26 | 10.6 µM | 1.69 µM | 8.24 µM | 2.64 µM | 12.3 µM | 3.74 µM | 12.8 µM | 3.02 µM | 9.16 µM
2 | CN(C)c1ccc(/C=N/N=C(\C#N)[S][Sn]([Cl])([c]2ccccc2)[c]2ccccc2)cc1 | 1.58 µM | 3.08 µM | 1.48 µM | 2.83 µM | 1.82 µM | 3.46 µM | 2.29 | 5.48 | 1.52 | 2.95 µM | 2.08 | 4.18 µM | 1.96 µM | 3.71 µM | 1.07 µM | 2.36 µM | 1.72 µM | 3.38 µM | 2.63 µM | 6.02 µM
3 | CC(C)c1ccc2c(c1)CCC1C2CCCC1(C)NCc1ccccc1 (stereo not given) | 6.76 µM | 21.1 µM | 2.43 µM | 5.61 µM | 5.38 µM | 18.4 µM | 2.17 | 6.17 | 2.52 | 6.13 µM | 0.78 | 2.7 µM | 11.5 µM | 24.5 µM | 8.77 µM | 21.3 µM | 1.97 µM | 3.71 µM | 8.94 µM | 21.4 µM
4 | COc1ccccc1CNCCCN1C(=O)c2ccc3c4c(ccc(c24)C1=O)C(=O)N(CCCNCc1ccccc1OC)C3=O | 0.196 µM | 0.458 µM | 0.257 µM | 0.703 µM | 0.362 µM | 1.32 µM | 0.213 | 0.666 | 0.184 | 0.349 µM | 0.136 | 0.425 µM | 1.21 µM | 2.5 µM | 0.283 µM | 0.754 µM | 0.179 µM | 0.337 µM | 0.192 µM | 0.633 µM
5 | CNCc1cccc2c1OCCOCCOCCNS(=O)(=O)c1ccc(cc1)-c1cnc(N)c(n1)C(=O)N2 | 9.82 µM | 23.1 µM | 1.22 µM | 2.89 µM | 2.21 µM | 8.09 µM | 1.76 | 3.39 | 1.93 | 4.68 µM | 1.31 | 3.76 µM | 1.36 µM | 3.79 µM | 0.353 µM | 5.26 µM | 1.31 µM | 2.71 µM | 1.27 µM | 2.96 µM
6 | COc1nc(N)nc2nc[nH]c12 | 161 µM and 299 µM | 485 µM and 579 µM and > 1000 µM | 639 µM and 214 µM | 500 µM and 800 µM and > 418 µM | 400 µM and 380 µM | 458 µM and 800 µM and > 1000 µM | > 881 | > 1000 | > 1000 | 500 µM and > 800 µM and > 1000 µM | > 800 | 500 µM and > 800 µM and > 1000 µM | 306 µM and 335 µM | 500 µM and 800 µM and 691 µM | 275 µM and 263 µM | 342 µM and 679 µM and > 929 µM | 772 µM and 585 µM | 500 µM and 800 µM and > 1000 µM | 576 µM and 582 µM | 180 µM and 800 µM and > 923 µM
7 | CCOC(=O)C#Cc1c(C(=O)OCC)nnn1[C@@H]1O[C@H](COC)[C@@H](OC)[C@H]1OC | 1.88 µM | 4.38 µM | 13.3 µM | 26.7 µM | 1.65 µM | 3.18 µM | > 100 | > 100 | 3.38 | 8.29 µM | 2.86 | 6.49 µM | 18.2 µM | 32.9 µM | 11.9 µM | 24.2 µM | 3.27 µM | 10.8 µM | 25.7 µM | 63.1 µM
8 | COc1cc(/C=C/c2cc(/C=C/c3ccc(O)c(OC)c3)n(C(=O)Nc3ccc(C)cc3)n2)ccc1O | 0.272 µM | 1.72 µM | 0.412 µM | 1.81 µM | 1.19 µM | 4.82 µM | 1.71 | 6.34 | 1.06 | 4.95 µM | 1.93 | 5.19 µM | 1.43 µM | 4.87 µM | 0.321 µM | 1.36 µM | 0.287 µM | 1.05 µM | 0.759 µM | 2.5 µM
9 | O=c1c(Oc2ccc(F)cc2F)cc2cnc(NC3CCOCC3)nc2n1C1CC1 | 2.21 µM | 10.2 µM | > 25 µM | > 25 µM | > 22.9 µM | > 25 µM | > 25 | > 25 | > 25 | > 25 µM | > 25 | > 25 µM | 2.72 µM | > 25 µM | > 25 µM | > 25 µM | > 25 µM | > 25 µM | > 25 µM | > 25 µM
10 | O=S(=O)(Nc1ccccc1)c1ccc(C2CC3(Cl)C(Cl)=C(Cl)C2(Cl)C3(Cl)Cl)cc1 (stereo not given) | 2.09 µM | 6.72 µM | 2.15 µM | 4.23 µM | 1.87 µM | 4.47 µM | 2.21 | 5.97 | 2.64 | 6.27 µM | 2.37 | 5.41 µM | 2.32 µM | 6.29 µM | 2.61 µM | 9.09 µM | 2.19 µM | 4.61 µM | 2.52 µM | 5.93 µM
11 | C=C(C)c1nc(Oc2ccccc2)nc(Oc2ccccc2)n1 |  | 32.1 µM |  | 15 µM |  | 36.7 µM |  | 29.8 |  | 23 µM |  | 12.9 µM |  | 31.1 µM |  | 24.5 µM |  | 11.3 µM |  | 25 µM
12 | CCC12C=C(C(=O)OC)N3c4ccccc4C4CCN(CCC1)C2C43 (stereo not given) |  | > 100 µM |  | 60.9 µM |  | 82.5 µM |  | > 100 |  | > 100 µM |  | > 100 µM |  | > 100 µM |  | > 100 µM |  | > 100 µM |  | 99.8 µM
